Test [1] concerns the target T1, Muscarinic acetylcholine receptor M2 (Homo sapiens, UniProt P08172).
T1 sequence (P08172 whole entry): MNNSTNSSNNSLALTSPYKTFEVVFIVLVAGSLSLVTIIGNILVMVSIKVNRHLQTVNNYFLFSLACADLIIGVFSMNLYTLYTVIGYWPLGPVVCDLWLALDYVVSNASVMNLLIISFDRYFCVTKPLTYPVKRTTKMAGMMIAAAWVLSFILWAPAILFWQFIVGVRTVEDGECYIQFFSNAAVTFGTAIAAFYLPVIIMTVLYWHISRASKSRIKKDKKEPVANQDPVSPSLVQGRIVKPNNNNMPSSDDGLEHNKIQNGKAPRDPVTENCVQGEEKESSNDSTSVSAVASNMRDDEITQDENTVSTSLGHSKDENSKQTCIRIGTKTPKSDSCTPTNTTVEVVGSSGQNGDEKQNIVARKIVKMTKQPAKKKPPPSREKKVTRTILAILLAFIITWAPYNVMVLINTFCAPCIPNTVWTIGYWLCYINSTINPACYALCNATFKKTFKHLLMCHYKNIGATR
The format is functional, cell-based.

The target of test [2] is T2, Alpha-2A adrenergic receptor (Homo sapiens, UniProt P08913).
T2 sequence (P08913 whole entry): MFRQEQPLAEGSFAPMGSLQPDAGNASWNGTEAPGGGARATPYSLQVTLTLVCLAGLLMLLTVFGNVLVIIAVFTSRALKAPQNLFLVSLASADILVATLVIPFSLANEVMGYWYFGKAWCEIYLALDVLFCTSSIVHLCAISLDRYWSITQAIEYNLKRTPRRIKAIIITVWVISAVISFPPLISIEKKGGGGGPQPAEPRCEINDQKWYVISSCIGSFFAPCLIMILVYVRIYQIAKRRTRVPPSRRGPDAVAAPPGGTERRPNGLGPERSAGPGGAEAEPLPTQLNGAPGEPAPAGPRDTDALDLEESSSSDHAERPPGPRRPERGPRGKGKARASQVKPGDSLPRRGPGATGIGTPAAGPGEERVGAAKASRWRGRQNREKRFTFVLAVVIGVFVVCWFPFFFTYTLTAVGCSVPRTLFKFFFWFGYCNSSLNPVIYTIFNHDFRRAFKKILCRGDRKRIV
The class given is functional, cell-based.

The target of test [3] is cGMP-inhibited 3',5'-cyclic phosphodiesterase 3A (Homo sapiens, UniProt Q14432). The format is functional.
Test [4] deals with T3, Equilibrative nucleoside transporter 1 (Homo sapiens, UniProt Q99808).
T3 sequence (Q99808 whole entry): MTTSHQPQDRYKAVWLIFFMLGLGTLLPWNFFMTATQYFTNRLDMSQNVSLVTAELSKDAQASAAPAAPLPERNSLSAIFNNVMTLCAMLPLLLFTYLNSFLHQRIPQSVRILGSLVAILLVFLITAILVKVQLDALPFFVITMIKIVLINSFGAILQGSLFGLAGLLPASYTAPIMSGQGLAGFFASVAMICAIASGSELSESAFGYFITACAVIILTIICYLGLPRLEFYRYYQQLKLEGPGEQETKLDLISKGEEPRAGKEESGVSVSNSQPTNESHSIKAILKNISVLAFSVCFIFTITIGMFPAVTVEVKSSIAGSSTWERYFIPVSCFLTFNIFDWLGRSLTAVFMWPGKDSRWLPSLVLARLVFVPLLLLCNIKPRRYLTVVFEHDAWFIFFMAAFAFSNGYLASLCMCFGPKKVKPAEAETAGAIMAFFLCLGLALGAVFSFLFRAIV

Test [5] has as its target T4, Amine oxidase [flavin-containing] A (Homo sapiens, UniProt P21397).
T4 sequence (P21397 whole entry): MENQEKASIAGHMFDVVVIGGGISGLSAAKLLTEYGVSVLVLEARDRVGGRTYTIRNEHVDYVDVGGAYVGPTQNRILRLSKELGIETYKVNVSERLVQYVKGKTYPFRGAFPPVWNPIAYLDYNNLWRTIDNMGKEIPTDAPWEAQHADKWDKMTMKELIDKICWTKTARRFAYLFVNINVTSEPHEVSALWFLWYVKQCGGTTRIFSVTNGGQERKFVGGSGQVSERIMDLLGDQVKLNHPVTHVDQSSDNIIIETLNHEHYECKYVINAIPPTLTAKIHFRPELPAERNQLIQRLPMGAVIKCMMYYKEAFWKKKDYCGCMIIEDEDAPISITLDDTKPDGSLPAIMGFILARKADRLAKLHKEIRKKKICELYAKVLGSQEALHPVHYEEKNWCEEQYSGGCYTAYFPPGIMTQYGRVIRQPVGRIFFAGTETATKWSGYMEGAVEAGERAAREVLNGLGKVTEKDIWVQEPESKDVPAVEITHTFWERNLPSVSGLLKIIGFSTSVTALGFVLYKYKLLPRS
The class given is functional.

In test [6] the target is Delta-type opioid receptor (Homo sapiens, UniProt P41143).
In test [7] the target is Motilin receptor (Homo sapiens, UniProt O43193).
In test [8] the target is Sodium-dependent dopamine transporter (Homo sapiens, UniProt Q01959).
Test [9] concerns the target T5, Estrogen receptor (Homo sapiens, UniProt P03372).
T5 sequence (P03372 whole entry): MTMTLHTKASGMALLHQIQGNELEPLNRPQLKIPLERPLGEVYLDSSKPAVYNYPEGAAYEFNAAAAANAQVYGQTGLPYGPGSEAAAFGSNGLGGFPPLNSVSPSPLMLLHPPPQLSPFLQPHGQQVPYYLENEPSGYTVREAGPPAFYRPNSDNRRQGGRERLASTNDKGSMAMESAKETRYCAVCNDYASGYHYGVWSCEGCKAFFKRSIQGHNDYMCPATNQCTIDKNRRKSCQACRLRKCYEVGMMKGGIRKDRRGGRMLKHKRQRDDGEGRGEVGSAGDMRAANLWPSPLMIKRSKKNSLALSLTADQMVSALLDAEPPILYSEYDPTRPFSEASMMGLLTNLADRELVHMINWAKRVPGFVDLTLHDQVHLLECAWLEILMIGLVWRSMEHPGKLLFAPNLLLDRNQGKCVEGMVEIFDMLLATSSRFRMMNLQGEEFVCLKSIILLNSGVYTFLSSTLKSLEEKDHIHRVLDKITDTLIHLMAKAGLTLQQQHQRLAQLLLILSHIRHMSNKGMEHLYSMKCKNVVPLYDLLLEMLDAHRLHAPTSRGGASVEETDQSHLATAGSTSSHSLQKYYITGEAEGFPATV

In test [10] the target is D(3) dopamine receptor (Homo sapiens, UniProt P35462).
In test [11] the target is T1, Muscarinic acetylcholine receptor M2. The format is functional, cell-based. This is another data set of the same source.

Molecules are shown by their SMILES.

This is an account of results in ChEMBL document CHEMBL5291721, “A preclinical secondary pharmacology resource illuminates target-adverse drug reaction associations of marketed drugs” (Nat Commun, 2023).
Also: assay procedure not described here.

Chain of D(3) dopamine receptor (P35462 whole entry): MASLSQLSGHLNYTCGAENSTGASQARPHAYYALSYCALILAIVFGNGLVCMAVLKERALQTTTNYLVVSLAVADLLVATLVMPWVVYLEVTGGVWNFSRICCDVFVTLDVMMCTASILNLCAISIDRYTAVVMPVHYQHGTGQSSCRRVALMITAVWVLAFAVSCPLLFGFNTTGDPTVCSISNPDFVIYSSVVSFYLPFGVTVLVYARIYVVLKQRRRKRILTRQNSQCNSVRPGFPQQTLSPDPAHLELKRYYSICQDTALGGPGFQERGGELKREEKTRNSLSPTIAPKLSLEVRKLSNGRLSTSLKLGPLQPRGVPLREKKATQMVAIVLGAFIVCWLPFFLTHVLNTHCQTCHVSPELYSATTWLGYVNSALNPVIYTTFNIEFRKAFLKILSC
Chain of Sodium-dependent dopamine transporter (Q01959 whole entry): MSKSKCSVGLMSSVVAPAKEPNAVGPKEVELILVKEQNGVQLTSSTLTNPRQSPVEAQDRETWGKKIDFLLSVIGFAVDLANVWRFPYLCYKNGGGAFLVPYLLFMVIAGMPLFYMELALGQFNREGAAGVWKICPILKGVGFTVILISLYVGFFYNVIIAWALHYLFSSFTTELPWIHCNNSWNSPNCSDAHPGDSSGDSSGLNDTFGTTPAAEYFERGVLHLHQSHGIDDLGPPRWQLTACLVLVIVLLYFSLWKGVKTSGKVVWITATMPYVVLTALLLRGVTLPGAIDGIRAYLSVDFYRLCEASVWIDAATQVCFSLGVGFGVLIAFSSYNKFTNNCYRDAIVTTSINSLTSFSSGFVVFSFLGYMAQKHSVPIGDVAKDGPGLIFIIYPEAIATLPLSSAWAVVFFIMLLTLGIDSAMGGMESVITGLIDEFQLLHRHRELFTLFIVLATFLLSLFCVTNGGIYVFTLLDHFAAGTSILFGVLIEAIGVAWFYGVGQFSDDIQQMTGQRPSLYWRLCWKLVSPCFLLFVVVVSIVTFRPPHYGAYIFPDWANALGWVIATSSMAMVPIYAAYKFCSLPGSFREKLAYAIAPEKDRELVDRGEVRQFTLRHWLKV
Chain of cGMP-inhibited 3',5'-cyclic phosphodiesterase 3A (Q14432 whole entry): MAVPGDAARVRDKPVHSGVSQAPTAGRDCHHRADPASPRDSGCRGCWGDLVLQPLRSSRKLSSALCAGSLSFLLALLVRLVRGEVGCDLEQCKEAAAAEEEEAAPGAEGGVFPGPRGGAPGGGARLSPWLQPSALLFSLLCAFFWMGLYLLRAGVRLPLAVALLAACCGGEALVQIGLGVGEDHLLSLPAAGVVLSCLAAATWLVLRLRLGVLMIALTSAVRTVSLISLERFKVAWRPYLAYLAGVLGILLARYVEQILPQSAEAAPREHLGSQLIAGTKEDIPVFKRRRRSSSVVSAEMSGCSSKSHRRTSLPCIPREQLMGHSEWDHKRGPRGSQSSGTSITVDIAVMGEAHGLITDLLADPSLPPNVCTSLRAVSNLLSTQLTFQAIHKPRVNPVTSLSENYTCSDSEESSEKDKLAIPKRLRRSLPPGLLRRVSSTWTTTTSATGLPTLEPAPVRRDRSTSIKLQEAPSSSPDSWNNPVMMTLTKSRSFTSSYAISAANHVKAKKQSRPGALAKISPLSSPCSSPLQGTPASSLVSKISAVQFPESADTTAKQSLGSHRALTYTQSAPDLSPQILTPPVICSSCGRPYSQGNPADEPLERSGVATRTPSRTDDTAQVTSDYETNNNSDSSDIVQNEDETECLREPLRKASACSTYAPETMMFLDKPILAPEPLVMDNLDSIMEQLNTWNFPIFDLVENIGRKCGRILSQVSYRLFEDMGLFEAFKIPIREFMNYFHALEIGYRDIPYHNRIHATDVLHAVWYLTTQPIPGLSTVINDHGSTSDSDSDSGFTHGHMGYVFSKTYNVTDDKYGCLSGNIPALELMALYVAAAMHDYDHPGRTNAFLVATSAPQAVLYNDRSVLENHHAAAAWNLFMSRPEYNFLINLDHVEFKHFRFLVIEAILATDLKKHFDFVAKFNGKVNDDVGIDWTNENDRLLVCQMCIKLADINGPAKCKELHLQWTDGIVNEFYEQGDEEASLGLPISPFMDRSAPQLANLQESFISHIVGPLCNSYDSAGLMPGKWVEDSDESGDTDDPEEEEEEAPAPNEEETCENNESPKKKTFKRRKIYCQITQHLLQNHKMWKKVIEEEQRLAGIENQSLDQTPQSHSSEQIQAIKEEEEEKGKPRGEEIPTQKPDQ
Chain of Delta-type opioid receptor (P41143 whole entry): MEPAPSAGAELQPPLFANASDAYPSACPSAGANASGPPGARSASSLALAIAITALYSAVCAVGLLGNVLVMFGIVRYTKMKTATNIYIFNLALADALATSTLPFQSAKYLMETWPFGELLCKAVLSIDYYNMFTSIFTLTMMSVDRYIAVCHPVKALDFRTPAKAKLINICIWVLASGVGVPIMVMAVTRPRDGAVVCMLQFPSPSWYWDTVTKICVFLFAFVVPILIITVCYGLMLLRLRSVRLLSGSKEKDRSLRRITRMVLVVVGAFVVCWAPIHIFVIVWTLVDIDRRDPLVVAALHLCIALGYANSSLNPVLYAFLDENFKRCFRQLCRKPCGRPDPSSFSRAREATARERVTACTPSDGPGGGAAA
Chain of Motilin receptor (O43193 whole entry): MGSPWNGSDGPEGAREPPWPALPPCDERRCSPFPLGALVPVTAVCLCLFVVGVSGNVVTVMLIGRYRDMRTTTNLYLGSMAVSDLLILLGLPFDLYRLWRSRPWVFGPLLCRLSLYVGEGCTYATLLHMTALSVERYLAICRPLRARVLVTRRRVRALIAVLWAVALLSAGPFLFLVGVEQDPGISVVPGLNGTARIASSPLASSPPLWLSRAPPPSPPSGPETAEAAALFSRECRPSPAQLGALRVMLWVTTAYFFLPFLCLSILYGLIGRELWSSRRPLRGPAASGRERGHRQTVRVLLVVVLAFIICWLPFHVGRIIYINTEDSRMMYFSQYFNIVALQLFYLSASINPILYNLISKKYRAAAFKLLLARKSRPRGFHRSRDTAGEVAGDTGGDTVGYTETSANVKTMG

With `CC(C[N+](C)(C)C)OC(N)=O` (stereo not drawn) [BETHANECHOL], the concentration at half-maximal activity (AC50) is 3.9 µM in test [1]; greater than 10 µM in [2]; greater than 30 µM in [3]; greater than 10 µM in test [4]; greater than 10 µM in test [5]; greater than 30 µM in test [6]. The AC50 in test [7] is greater than 10 µM; in test [8] it was greater than 10 µM; in test [9], greater than 10 µM; in [10], greater than 30 µM.
For the molecule `CO/N=C(\C(=O)N[C@@H]1C(=O)N2C(C(=O)O)=C(CSc3nnnn3C)CS[C@H]12)c1csc(N)n1` [CEFMENOXIME], the AC50 in [1], in test [2], in [3], in test [4], in test [5] and in [11] was greater than 30 µM in each case. Moreover, the half-maximal activity concentration (AC50) in [7], in test [8] and in test [9] was greater than 30 µM throughout.
On to `COc1ccc2c3c1O[C@H]1[C@@H](O)C=C[C@H]4[C@@H](C2)N(C)CC[C@@]341` [CODEINE], for which the AC50 in [1] was greater than 10 µM; in test [2], greater than 10 µM; in test [3], 3 µM; in test [4] it was greater than 30 µM; in [5] it was greater than 10 µM; in [11] it was greater than 10 µM. In addition, the AC50 in test [7] was greater than 10 µM; in [8], greater than 30 µM; in test [9], greater than 30 µM; in test [10], greater than 10 µM.
Consider `C#C[C@]1(O)CC[C@H]2[C@@H]3CCC4=Cc5oncc5C[C@]4(C)[C@H]3CC[C@@]21C` [DANAZOL], for which the concentration at half-maximal activity (AC50) was greater than 10 µM in test [2]; greater than 10 µM in test [4]; greater than 10 µM in test [5]; greater than 30 µM in test [6]; greater than 10 µM in test [11]; greater than 10 µM in test [7]. The AC50 in test [8] is greater than 10 µM; in test [9], greater than 30 µM; in test [10] it was greater than 30 µM.
As for `CCCCCCOc1ccccc1C(N)=O` [EXALAMIDE], the AC50 in test [2] is 13 µM; in test [3], greater than 30 µM; in [4], greater than 30 µM; in [5], greater than 30 µM; in test [6], greater than 30 µM; in [7], greater than 30 µM. Further, the concentration at half-maximal activity (AC50) is 14 µM in test [8], greater than 30 µM in test [9] and greater than 30 µM in [10].
As to `CCc1c(Cl)c(O)c(Cl)c(O)c1C(=O)O[C@H]1[C@H](O)[C@H](OC)[C@H](OC/C2=C\C=C\C[C@H](O)/C(C)=C/[C@H](CC)[C@@H](O[C@@H]3OC(C)(C)[C@@H](OC(=O)C(C)C)[C@H](O)[C@@H]3O)/C(C)=C/C(C)=C/C[C@@H]([C@@H](C)O)OC2=O)O[C@@H]1C` [FIDAXOMICIN], the half-maximal activity concentration (AC50) in [3] is greater than 30 µM; in test [4], 3.6 µM; in test [5], greater than 30 µM; in test [6], greater than 30 µM; in [7], greater than 10 µM; in [8], greater than 30 µM. For the same molecule, the half-maximal activity concentration (AC50) in [9] and in test [10] was greater than 30 µM in each case.
Take `CC(C)(C)c1cc(C(C)(C)C)c(NC(=O)c2c[nH]c3ccccc3c2=O)cc1O` [IVACAFTOR]: the half-maximal activity concentration (AC50) in test [2] is greater than 10 µM; in test [3], greater than 30 µM; in test [4], greater than 30 µM; in test [5], greater than 10 µM; in test [6] it was greater than 30 µM; in [7], greater than 10 µM. Besides, the AC50 in test [8] is 11.2 µM; in test [9] it was greater than 30 µM; in test [10] it was greater than 30 µM.
Turning to `CN1C(=O)C(O)N=C(c2ccccc2Cl)c2cc(Cl)ccc21` (stereo not drawn) [LORMETAZEPAM], the AC50 in test [1] was 17 µM; in test [2] it was 16 µM; in test [3] it was greater than 10 µM; in [4], greater than 30 µM; in [5] it was greater than 30 µM; in [6] it was greater than 30 µM. The AC50 in [7], in test [8], in [9] and in test [10] was greater than 30 µM each time.
As to `CCOC(=O)[N-]c1cn(N2CCOCC2)n[o+]1` [MOLSIDOMINE], the half-maximal activity concentration (AC50) in [1] was greater than 30 µM; in [2], greater than 30 µM; in test [3], greater than 30 µM; in test [4], greater than 30 µM; in [6], greater than 10 µM; in test [11], greater than 30 µM. In addition, the AC50 in test [7], in test [8], in test [9] and in test [10] was greater than 30 µM in each case.
Turning to `CC[C@@H]1C(=O)OC[C@@H]1Cc1cncn1C` [PILOCARPINE], the half-maximal activity concentration (AC50) in test [2] is greater than 10 µM; in [3], greater than 30 µM; in test [4], greater than 30 µM; in test [5], greater than 10 µM; in test [6] it was greater than 30 µM; in [7], greater than 10 µM. Further, the AC50 in test [8], in [9] and in [10] was greater than 30 µM in each case.
With `Cc1ccc(-n2nccn2)c(C(=O)N2CCN(c3nc4cc(Cl)ccc4o3)CC[C@H]2C)c1` [SUVOREXANT], the concentration at half-maximal activity (AC50) in [1], in test [2], in test [3], in test [5], in test [6] and in [11] was greater than 30 µM each time. For the same molecule, the AC50 was greater than 30 µM in test [7], greater than 10 µM in [8], greater than 30 µM in [9] and greater than 30 µM in test [10].
Consider `COc1cc2c(N)nc(N3CCN(C(=O)OCC(C)(C)O)CC3)nc2c(OC)c1OC` [TRIMAZOSIN], for which the AC50 in [1], in [2], in test [3], in [5], in test [6] and in test [11] was greater than 30 µM each time. Also, the concentration at half-maximal activity (AC50) in [7], in [8], in test [9] and in [10] was greater than 30 µM throughout.
